Test results taken from PMC8615111, “Phenolic Thiazoles with Antioxidant and Antiradical Activity. Synthesis, In Vitro Evaluation, Toxicity, Electrochemical Behavior, Quantum Studies and Antimicrobial Screening” (Antioxidants, 2021).
Read-outs that look alike come from different tables or passages of the source.

Key:
Cu^2+ chelation assay = assay type: biochemical
HaCaT cells = assay: Cytotoxicity determination, MTT method; assay type: cell-based; details: Homo sapiens, HaCaT cells, MTT, 24 h
Description: To determine the cytotoxic action of the obtained compounds 5[…], and 8a-b, a normal human keratinocytes cell line was used (HaCaT keratinocytes, CLS-300493, Eppelheim, Germany). HaCaT cells were cultured in Dulbecco's Modified Eagle Media (DMEM) supplemented with 1% L-glutamine, 1% penicillin-streptomycin, and 5% fetal bovine serum. At 80% confluence, the cells were transferred to 96 well plates at a confluence of 12×10^3 cells/well and left to attach for 24 h at 37°C and 5% CO2 in a humidified atmosphere. […] After 24 h, the culture media was replaced with 100 μL of MTT solution at a final concentration of 5 μg/mL/well and left to interact with the cells for 2 h in the incubator. After this, the MTT solution was replaced with 100 μL of isopropanol, left to dissolve the formazan crystals for 5 min, and read at 550 and 630 nm using a BioTek Epoch plate reader (BioTek Instruments, Winooski, VT, USA) and Gen5 software (version 1.09).

[1] = DPPH˙ radical scavenging by cyclic voltammetry
Description: The antioxidant properties were evaluated in terms of their activity against some free radicals, and other compounds reported in the literature, relevant for this purpose, such as: • ferric ions (Fe^3+)—used to test the reduction of the antioxidant character of the compounds; • DPPH˙ free radical– used to test the scavenging effect of the compounds on this radical; • hydrogen peroxide (H2O2)—used to test the scavenging effect of the synthesized molecules on this compound; • 2,2,6,6-tetramethylpiperidinyl-1-oxy (TEMPO)—used to test the scavenging effect of the synthesized molecules on this compound.
The radical scavenging properties of the novel compounds and the other antioxidants were determined using a stock DPPH˙ radical solution prepared in absolute ethanol. The antioxidant samples were mixed with DPPH˙ solution and HClO4 electrolyte and incubated in the dark for 30 min. The remaining redox activity of DPPH was measured by cycling the potential between −0.7 V and 1.2 V, with a scan rate of 0.1 V/s.
The nitrogen-centered 2-2-diphenyl-1-picrylhydrazyl radical (DPPH˙) based assay is one of the most commonly employed method to evaluate the ability of a compound to scavenge or neutralize free radicals based on the reduction of the radical.
Taking into account the redox activity of DPPH˙, its diminution by an antioxidant can also be followed by CV, which is expected to show changes in the voltammetric peaks. Figure A5 reports the electrochemical study of initial electrooxidation of DPPH˙ and the novel compounds compared to remaining peaks after their incubation for 30 min. The decrease of all the peaks after mixture incubation indicates the partial consumption of DPPH˙.

C. albicans ATCC 102310 = assay: Antifungal activity, modified microdilution; assay type: cell-based; details: Candida albicans, ATCC102310
Description: (§1) For evaluating the antimicrobial activity of the compounds, […] aerobic microbial strains were used: S. aureus ATCC 25923, S. pyogenes ATCC 19615, P. aeruginosa ATCC 27853, S. enterica ISM 83/37, S. typhimurium ATCC 14028, E. coli ATCC 8739, E. coli ATCC 25922, and C. albicans ATCC 102310 obtained from Food Biotechnology Laboratory, Life Sciences Institute, University of Agricultural Sciences, and Veterinary Medicine Cluj Napoca, where the experiment was performed. The antimicrobial activity of the compounds was determined using a modified microdilution technique, and the followed protocol was previously reported.
(§2) The antimicrobial activity of the final compounds, against seven aerobic microbial strains (S. aureus ATCC 25923, S. pyogenes ATCC 19615, P. aeruginosa ATCC 27853, S. enterica ISM 83/37, S. typhimurium ATCC 14028, E. coli ATCC 8739, E. coli ATCC 25922), and a fungal strain (C. albicans ATCC 102310), was determined using a modified microdilution technique.
(§3) The results of the antimicrobial activity evaluation of the compounds, in comparison to norfloxacin and chloramphenicol used as standard antibiotics and fluconazole used as reference antifungal, are depicted in Table 10.

[2] = ABTS˙^+ radical scavenging assay; assay type: biochemical; details: for IC50: ABTS˙^+ scavenging
Description: The assay was based on the decolorization of green (2,2′-azinobis-(3-ethylbenzothiazoline-6-sulfonic acid) ABTS˙^+ to ABTS, on the principle reported by Re et al. and was carried out according to our previously published research.
Later, 1950 µL of ABTS˙^+ reagent was added to all cuvettes and they were shaken for well over 10 min in the dark at room temperature. The absorbance of the resulted solutions found in cuvettes was determined spectrophotometrically at λ = 734 nm. The ABTS scavenging activity of the compounds was calculated using the following Equation (1):(1) ABTS scavenging (%)=control absorbance−sample absorbance/control absorbance×100

P. aeruginosa ATCC 27853 = assay: Antimicrobial activity, modified microdilution; assay type: cell-based; details: Pseudomonas aeruginosa, ATCC27853
Description: as §1, §2, §3

E. coli ATCC 25922 = assay: Antimicrobial activity, modified microdilution; assay type: cell-based; details: Escherichia coli, ATCC25922
Description: as §1, §2, §3

S. pyogenes ATCC 19615 = assay: Antimicrobial activity, modified microdilution; assay type: cell-based; details: Streptococcus pyogenes, ATCC19615
Description: as §1, §2, §3

[3] = test system: S. typhimurium ATCC 14028; assay: Antimicrobial activity, modified microdilution; assay type: cell-based; details: Salmonella enterica
Description: as §1, §2, §3

S. enterica ISM 83/37 = assay: Antimicrobial activity, modified microdilution; assay type: cell-based; details: Salmonella enterica, ISM83/37
Description: as §1, §2, §3

S. aureus ATCC 25923 = assay: Antimicrobial activity, modified microdilution; assay type: cell-based; details: Staphylococcus aureus, ATCC25923
Description: as §1, §2, §3

E. coli ATCC 8739 = assay: Antimicrobial activity, modified microdilution; assay type: cell-based; details: Escherichia coli, ATCC8739
Description: as §1, §2, §3

[4] = compound + DPPH, 30 min, 2nd Eox
[5] = compound alone 0.5 mM in 0.1 M HClO4, 1st Eox column
[6] = compound alone 0.5 mM in 0.1 M HClO4, 1st Iox column
[7] = compound alone, 2nd Ered column
[8] = compound + DPPH, 30 min, 3rd Eox column
[9] = compound + DPPH, 30 min, 3rd Iox column
[10] = compound + DPPH, after 30 min of reaction, 1st Eox column
[11] = compound + DPPH, after 30 min of reaction, 1st Iox column
[12] = compound + DPPH, 30 min, 2nd Ered column
[13] = compound + DPPH, 30 min, 2nd Ired

Compound	Chelation Capacity (%), cupric ions (Cu^2+ chelation assay; 3.36 µg/mL)	Chelation Capacity (%), cupric ions (Cu^2+ chelation assay; 6.72 µg/mL)	Chelation Capacity (%), cupric ions (Cu^2+ chelation assay; 10.08 µg/mL)	Chelation Capacity (%), cupric ions (Cu^2+ chelation assay; 13.44 µg/mL)	Chelation Capacity (%), cupric ions (Cu^2+ chelation assay; 16.80 µg/mL)	IC50 (HaCaT cells; read-out: IC50)	IC50 (HaCaT cells; read-out: IC50 (µg/mL))	Iox (μA) ([1]; compound + DPPH, 30 min)	Eox (V) [1, 4]	Ered (V) [1, 7]	Ired (μA) ([1]; compound alone, 2nd Ired)	Eox (V) ([1]; compound alone, 3rd Eox column)	Iox (μA) ([1]; compound alone, 3rd Iox column)	MIC (C. albicans ATCC 102310)	% of ABTS˙^+ Scavenged ([2]; 0.5 µg/mL)	% of ABTS˙^+ Scavenged ([2]; 0.75 µg/mL)	% of ABTS˙^+ Scavenged ([2]; 1 µg/mL)	% of ABTS˙^+ Scavenged ([2]; 1.5 µg/mL)	% of ABTS˙^+ Scavenged ([2]; 2.5 µg/mL)	MIC (S. enterica ISM 83/37)	also measured
Br.C/C(=N\Nc1nc(-c2ccc(O)c(C(N)=O)c2)cs1)c1ccc(O)cc1O [Compound 7a, (E)-1-(4-(3-carbamoyl-4-hydroxyphenyl)thiazol-2-yl)-2-(1-(2,4-dihydroxyphenyl)ethylidene)hydrazin-1-ium bromide]	8.76%	16.70%	26.63%	34.35%	38.88%	75.5 µM	35.1 µg/mL	9.24 μA	0.405 V	0.217 V	−5.26 μA	0.493 V	3.95 μA	> 100 µg/mL	11.62%	17.29%	22.69%	30.78%	49.37%	> 100 µg/mL	Eox (V) [1, 5]: 0.205 V; Iox (μA) [1, 6]: 3.21 μA; IC50 [2]: 2.52 µg/mL; MIC (P. aeruginosa ATCC 27853): 3.9 µg/mL; MIC (E. coli ATCC 25922): > 100 µg/mL; MIC (S. pyogenes ATCC 19615): 31.2 µg/mL; MIC [3]: > 100 µg/mL; MIC (S. aureus ATCC 25923): 62.4 µg/mL; MIC (E. coli ATCC 8739): > 100 µg/mL
C/C(=N\Nc1nc(-c2ccc(O)c(O)c2)cs1)c1ccc(O)cc1O.Cl [Compound 8a, (E)-2-(1-(2,4-dihydroxyphenyl)ethylidene)-1-(4-(3,4-dihydroxyphenyl)thiazol-2-yl)hydrazin-1-ium chloride]	11.13%	17.02%	25.14%	34.16%	38.91%	113 µM	44.6 µg/mL	11.18 μA	0.311 V	0.278 V	−18.04 μA	0.459 V	22.39 μA		25.40%	33.32%	41.07%	58.72%	90.97%	> 100 µg/mL	Eox (V) [1, 8]: 0.455 V; Iox (μA) [1, 9]: 20.68 μA; Eox (V) ([1]; compound + DPPH, 30 min, 4th Eox column): 0.908 V; Iox (μA) ([1]; compound + DPPH, 30 min, 4th Iox column): 6.39 μA; Eox (V) [1, 10]: 0.188 V; Iox (μA) [1, 11]: 11.53 μA; Iox (μA) ([1]; compound alone): 6.97 μA; Eox (V) [1, 5]: 0.193 V; Iox (μA) [1, 6]: 3.56 μA; Eox (V) ([1]; compound alone, 2nd Eox): 0.325 V; Eox (V) ([1]; compound alone, 4th Eox column): 0.935 V; Iox (μA) ([1]; compound alone, 4th Iox column): 6.88 μA; MIC (C. albicans ATCC 102310; C. albicans ATCC 102310, read-out: MIC): > 100 µg/mL; IC50 [2]: 1.25 µg/mL; MIC (P. aeruginosa ATCC 27853; P. aeruginosa ATCC 27853, read-out: MIC): 7.8 µg/mL; MIC (E. coli ATCC 25922; E. coli ATCC 25922, read-out: MIC): > 100 µg/mL; MIC (S. pyogenes ATCC 19615; S. pyogenes ATCC 19615, read-out: MIC): > 100 µg/mL; MIC ([3]; S. typhimurium ATCC 14028, read-out: MIC): > 100 µg/mL; MIC (S. aureus ATCC 25923; S. aureus ATCC 25923, read-out: MIC): > 100 µg/mL; MIC (E. coli ATCC 8739; E. coli ATCC 8739, read-out: MIC): > 100 µg/mL
Br.Oc1ccc(/C=N/Nc2nc(-c3ccccc3)cs2)c(O)c1 [Compound 6b, (E)-2-(2,4-dihydroxybenzylidene)-1-(4-phenylthiazol-2-yl)hydrazin-1-ium bromide]	3.84%	6.80%	10.44%	14.34%	17.07%	< 1.27 µM	< 0.5 µg/mL	43.4 μA	0.391 V	0.239 V	−7.045 μA			62.5 µg/mL	11.67%	17.45%	19.83%	28.56%	42.53%	> 100 µg/mL	Ered (V) ([1]; compound + DPPH, 30 min, 1st Ered): 0.302 V; Ired (μA) ([1]; compound + DPPH, 30 min, 1st Ired): −1.09 μA; Ered (V) [1, 12]: 0.425 V; Ired (μA) [1, 13]: −1.23 μA; Iox (μA) ([1]; compound alone): 47.3 μA; Eox (V) ([1]; compound alone, 2nd Eox): 0.391 V; IC50 [2]: 2.97 µg/mL; MIC (P. aeruginosa ATCC 27853): > 100 µg/mL; MIC (E. coli ATCC 25922): > 100 µg/mL; MIC (S. pyogenes ATCC 19615): > 100 µg/mL; MIC [3]: > 100 µg/mL; MIC (S. aureus ATCC 25923): > 100 µg/mL; MIC (E. coli ATCC 8739): > 100 µg/mL
C/C(=N\Nc1nc(C)cs1)c1ccc(O)cc1O [Compound 5a, Dihydroxy-Phenyl-Thiazol-Hydrazinium chloride]	10.74%	14.51%	20.10%	28.62%	33.67%	102 µM	30.7 µg/mL	13.23 μA	0.362 V	0.137 V	−9.59 μA	0.598 V	20.51 μA	> 100 µg/mL						> 100 µg/mL	Ered (V) [1, 12]: 0.188 V; Ired (μA) [1, 13]: −5.46 μA; Eox (V) [1, 8]: 0.572 V; Iox (μA) [1, 9]: 11.81 μA; Eox (V) [1, 10]: 0.218 V; Iox (μA) [1, 11]: 8.68 μA; Iox (μA) ([1]; compound alone): 43.29 μA; Eox (V) ([1]; compound alone, 2nd Eox): 0.339 V; Eox (V) ([1]; compound alone, 4th Eox column): 0.987 V; Iox (μA) ([1]; compound alone, 4th Iox column): 15.5 μA; MIC (P. aeruginosa ATCC 27853): 31.2 µg/mL; MIC (E. coli ATCC 25922): > 100 µg/mL; MIC (S. pyogenes ATCC 19615): > 100 µg/mL; MIC [3]: > 100 µg/mL; MIC (S. aureus ATCC 25923): > 100 µg/mL; MIC (E. coli ATCC 8739): > 100 µg/mL
